Measurements: paper PMC13128454, “Mutant p53 protein accumulation is selectively targetable by proximity-inducing drugs” (Nature Chemical Biology, 2025)
Several values for one entry are separate records, joined by “and”; a condition that tells them apart may be missing. Equal entries are not always repeated.

Assays:
[1] = tested on: Calu-1 cells stably expressing Halo–p53 WT (FL)–mCherry–2A–mTagBFP2-V5; assay: CellTiter-Glo cell viability; assay type: cell-based; settings: for mean_norm: Cell_Type WT; for replicates (raw CTG signal): p53_construct WT, CTG 4 days
Method: (§1) Cells were plated in 384-well plates (typically 1,500 cells per well) with varying concentrations of compounds, with a total volume of 50 μl per well. CTG reagent was added (25 μl) to the solutions, mixed and read out using an EnVision 2105 multimode plate reader.

[2] = tested on: Calu-1 cells stably expressing Halo–p53-Y220C (FL)–mCherry–2A–mTagBFP2-V5; assay: CellTiter-Glo cell viability; assay type: cell-based; settings: Cell_Type Y220C
Method: as §1

CC[C@@H]1C(=O)N(C)c2cnc(Nc3ccc(C(=O)NC4CCN(C)CC4)cc3OC)nc2N1C1CCCC1 [BI2536]
mean_norm ([1]; Concentration 0.00976562): 0.9965
mean_norm ([1]; Concentration 0.0195312): 0.9819
mean_norm ([1]; Concentration 0.0390625): 0.9464
mean_norm ([1]; Concentration 0.078125): 0.9231
mean_norm ([1]; Concentration 0.15625): 0.8923
mean_norm ([1]; Concentration 0.3125): 0.9222
mean_norm ([1]; Concentration 0.625): 0.8706
mean_norm ([1]; Concentration 1.25): 0.9152
mean_norm ([1]; Concentration 2.5): 0.732
mean_norm ([1]; Concentration 5): 0.654
replicates (raw CTG signal) ([1]; Compound_conc 0.0488281): 244635 and 211925 and 234768 and 234225
replicates (raw CTG signal) ([1]; Compound_conc 0.0976562): 273323 and 237458 and 247150 and 303994
replicates (raw CTG signal) ([1]; Compound_conc 0.195312): 238397 and 225982 and 259666 and 218737
replicates (raw CTG signal) ([1]; Compound_conc 0.390625): 236109 and 227126 and 240832 and 277749
replicates (raw CTG signal) ([1]; Compound_conc 0.78125): 245303 and 237908 and 252002 and 245374
replicates (raw CTG signal) ([1]; Compound_conc 1.5625): 272283 and 224772 and 244085 and 261410
replicates (raw CTG signal) ([1]; Compound_conc 3.125): 243376 and 233836 and 240215 and 246677
replicates (raw CTG signal) ([1]; Compound_conc 6.25): 186650 and 172938 and 193716 and 217878
replicates (raw CTG signal) ([1]; Compound_conc 12.5): 153573 and 146180 and 148955 and 165621
replicates (raw CTG signal) ([1]; Compound_conc 25): 156770 and 147371 and 141939 and 149390
replicates (raw CTG signal) ([1]; Compound_conc 50): 121176 and 111722 and 112653 and 125709
replicates (raw CTG signal) ([1]; Compound_conc 100): 91299 and 91521 and 110253 and 107241
mean_norm ([2]; Concentration 0.00976562): 1.033
mean_norm ([2]; Concentration 0.0195312): 1.042
mean_norm ([2]; Concentration 0.0390625): 1.012
mean_norm ([2]; Concentration 0.078125): 1.001
mean_norm ([2]; Concentration 0.15625): 1.013
mean_norm ([2]; Concentration 0.3125): 0.9845
mean_norm ([2]; Concentration 0.625): 0.8987
mean_norm ([2]; Concentration 1.25): 0.7731
mean_norm ([2]; Concentration 2.5): 0.741
mean_norm ([2]; Concentration 5): 0.654
